The target in the experiment is ROCK1 (Homo sapiens (Human), UniProt Q13464). Kind of experiment: ROCK1 kinase IC50 assay (biological test method similar to the ROCK2 assay). Format: biochemical. The protocol:
The kinase IC50 was determined by a commercialized CISBIO kinase detection kit, HTRF KinEASE-STK S2 kit (62ST2PEC). ROCK2 (01-119) employed in the reaction was purchased from Carna Biosciences.
Before the assay, the following working solutions as needed were formulated with corresponding reagents according to the instruction of the kinase detection kit: 1×kinase buffer, 5×STK-52 substrate working solution (1.5 μM) and 5×ATP working solution (1.5 μM), 5×ROCK2 kinase working solution, 4×Streptavidin-XL665 working solution, and 4×STK-Ab-Cryptate 2 detection solution. Then the assay was performed according to the following procedure.
A solution of a compound at a concentration of 10000 nM was prepared with the 1×kinase buffer containing 2.5% DMSO. Gradient dilution of the solution of the compound was performed with the kinase buffer containing DMSO, so as to obtain solutions of a test compound at 9 different concentrations. In addition to wells of test compounds, a positive well (containing all the reagents except the compound) and a negative well (containing all the reagents except the test compound and kinase) were set. Except for the control wells (positive and negative wells), a solution of a test compound (4 μL) was added to each of the reaction wells, and a solution of 2.5% DMSO was added to the control wells. Then the substrate ([…], 2 μL. 5×STK-S2 substrate working solution) was added to each of the reaction wells. The 5×ROCK2 kinase working solution (2 μL, containing 1.4 ng ROCK2 kinase) was added to each of the reaction wells except for the negative well, the volume of which was made up with the 1×kinase buffer (2 μL). The 5×ATP working solution (2 μL) was added to each of the reaction wells, and the mixtures were incubated at room temperature for 2 hours. After the kinase reaction was complete, the 4×Streptavidin-XL665 working solution was added to each of the reaction wells, the solutions were mixed, followed by immediate addition of the 4×STK-Ab-Cryptate 2 detection solution (5 μL), and the mixtures were incubated at room temperature for 1 hour. The fluorescence signal was read on ENVISION (Perkinelmer) (excitation wavelength: 320 nm, and emission wavelength: 665 nm and 615 nm). The inhibitory rate in each well was calculated based on the fluorescence intensity value: ER (Emission Ratio)=(fluorescence intensity at 665 nm/fluorescence intensity at 615 nm); inhibitory rate=(ERpositive−ERtest compound)/(ERpositive−ERnegative)*100%. Curves were plotted and fitted to obtain the median inhibitory concentration (IC50) of each teat compound with the PRISM 5.0 software.
According to a biological test method similar to the above, the IC50 values of the compounds on ROCK1 were tested.

Sequence of ROCK1 (Q13464 whole entry, species assumed): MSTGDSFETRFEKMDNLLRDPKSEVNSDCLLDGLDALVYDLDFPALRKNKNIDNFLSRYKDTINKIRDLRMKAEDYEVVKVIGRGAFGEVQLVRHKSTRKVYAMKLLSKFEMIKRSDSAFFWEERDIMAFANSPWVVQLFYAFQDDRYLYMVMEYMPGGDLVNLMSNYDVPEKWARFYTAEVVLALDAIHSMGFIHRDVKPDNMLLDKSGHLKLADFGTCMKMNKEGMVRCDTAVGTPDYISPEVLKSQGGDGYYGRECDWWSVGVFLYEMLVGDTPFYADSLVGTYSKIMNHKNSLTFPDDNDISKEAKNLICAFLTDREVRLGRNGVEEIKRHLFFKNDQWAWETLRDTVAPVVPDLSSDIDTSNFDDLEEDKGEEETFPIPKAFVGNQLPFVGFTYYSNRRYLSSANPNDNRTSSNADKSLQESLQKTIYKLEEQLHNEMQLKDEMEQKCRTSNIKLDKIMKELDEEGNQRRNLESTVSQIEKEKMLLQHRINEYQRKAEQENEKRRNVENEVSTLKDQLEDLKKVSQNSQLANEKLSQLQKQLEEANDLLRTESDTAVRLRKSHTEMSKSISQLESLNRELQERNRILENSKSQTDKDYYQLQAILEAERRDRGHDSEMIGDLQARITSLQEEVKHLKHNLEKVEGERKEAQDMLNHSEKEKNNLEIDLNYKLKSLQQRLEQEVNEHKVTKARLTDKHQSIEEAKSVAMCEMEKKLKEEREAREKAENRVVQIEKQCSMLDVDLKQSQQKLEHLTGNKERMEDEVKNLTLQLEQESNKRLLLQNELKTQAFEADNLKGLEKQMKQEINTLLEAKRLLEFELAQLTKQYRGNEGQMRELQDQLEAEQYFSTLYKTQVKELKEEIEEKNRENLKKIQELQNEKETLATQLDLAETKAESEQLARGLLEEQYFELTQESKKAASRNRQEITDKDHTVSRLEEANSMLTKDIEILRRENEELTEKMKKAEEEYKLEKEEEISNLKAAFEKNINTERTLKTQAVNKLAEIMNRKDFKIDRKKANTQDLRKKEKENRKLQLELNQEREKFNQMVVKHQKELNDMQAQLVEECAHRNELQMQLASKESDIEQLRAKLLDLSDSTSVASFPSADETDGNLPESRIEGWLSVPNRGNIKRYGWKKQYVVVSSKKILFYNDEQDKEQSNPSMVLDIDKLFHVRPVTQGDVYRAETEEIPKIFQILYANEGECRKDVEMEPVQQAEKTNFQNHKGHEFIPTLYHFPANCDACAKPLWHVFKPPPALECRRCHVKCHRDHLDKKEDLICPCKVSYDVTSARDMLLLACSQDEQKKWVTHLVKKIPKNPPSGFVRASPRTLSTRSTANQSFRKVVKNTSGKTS

For `CC(C)(C)OC(=O)n1cc(NC(=O)c2cc3ccc(-c4nccc(Nc5ccc6[nH]ncc6c5)n4)cc3[nH]2)cn1` [TDI01200, tert-butyl 4-(6-(4-((1H-indazol-5-yl)amino)-pyrimidin-2-yl)-1H-indole-2-carboxamido)-1H-pyrazole-1-carboxylate], the IC50 is 0.559 µM.
`Cn1c(C(=O)Nc2ccnnc2)cc2ccc(-c3nccc(Nc4ccc5[nH]ncc5c4)n3)cc21` [TDI01201, 6-(4-((1H-indazol-5-yl)amino)-pyrimidin-2-yl)-1-methyl-N-(pyridazin-4-yl)-1H-indole-2-carboxamide] showed an IC50 of 6.92 µM.
`O=C(Nc1ccnnc1)c1cc2ccc(-c3ncc(F)c(Nc4ccc5[nH]ncc5c4)n3)cc2[nH]1` [TDI01213, 6-(4-((1H-indazol-5-yl)amino)-5-fluoropyrimidin-2-yl)-N-(pyridazin-4-yl)-1H-indole-2-carboxamide] returned an IC50 above 10 µM.
Regarding `CN1CCN(CC(=O)n2ccc3ccc(-c4nccc(Nc5ccc6[nH]ncc6c5)n4)cc32)CC1` [TDI01230, 1-(6-(4-((1H-indazol-5-yl)amino)pyrimidin-2-yl)-1H-indol-1-yl)-2-(4-methylpiperazin-1-yl)ethan-1-one], 1.5 µM corresponded to half-maximal inhibition (IC50).
As for `Cc1nc(-c2ccc3cc(C(=O)Nc4ccnnc4)[nH]c3c2)nc(Nc2ccc3[nH]ncc3c2)c1C` [TDI01232, 6-(4-((1H-indazol-5-yl)amino)-5,6-dimethyl-pyrimidin-2-yl)-N-(pyridazin-4-yl)-1H-indole-2-carboxamide], the IC50 was above 10 µM.
Turning to `O=C(Nc1ccnnc1)c1ccc2ccc(-c3nccc(Nc4ccc5[nH]ncc5c4)n3)cc2n1` [TDI01236, 7-(4-((1H-indazol-5-yl)ami-no)pyrimidin-2-yl)-N-(pyridazin-4-yl)quinoline-2-carboxamide], the half-inhibitory concentration (IC50) is above 10 µM.
In the case of `O=C(Nc1ccnnc1)N1Cc2ccc(-c3nccc(Nc4ccc5[nH]ncc5c4)n3)cc2C1` [TDI01237, 5-(4-((1H-indazol-5-yl)amino)pyrimidin-2-yl)-N-(pyridazin-4-yl)isoindoline-2-carboxamide], the half-inhibitory concentration (IC50) is above 10 µM.
Next, `O=C(Nc1nncs1)c1cc2ccc(-c3nccc(Nc4ccc5[nH]ncc5c4)n3)cc2[nH]1` [TDI01247, 6-(4-((1H-indazol-5-yl)amino)pyrimidin-2-yl)-N-(1,3,4-thiadiazol-2-yl)-1H-indole-2-carboxamide]: above 10 µM; `Cc1cnc(-c2ccc3cc(C(=O)Nc4ccnnc4)[nH]c3c2)nc1Nc1ccc2[nH]ncc2c1` [TDI01250, 6-(4-((1H-indazol-5-yl)amino)-5-methyl-pyrimidin-2-yl)-N-(pyridazin-4-yl)-1H-indole-2-carboxamide]: above 10 µM; `Cc1cc(Nc2ccc3[nH]ncc3c2)nc(-c2ccc3cc(C(=O)Nc4ccnnc4)[nH]c3c2)n1` [TDI01251, 6-(4-((1H-indazol-5-yl)amino)-6-methyl-pyrimidin-2-yl)-N-(pyridazin-4-yl)-1H-indole-2-carboxamide]: above 10 µM.
Next, `Cc1c(Nc2ccnc(-c3ccc4cc(C(=O)Nc5ccnnc5)[nH]c4c3)n2)ccc2[nH]ncc12` [TDI01276, 6-(4-((4-methyl-1H-indazol-5-yl)amino)-pyrimidin-2-yl)-N-(pyridazin-4-yl)-1H-indole-2-carboxamide]: above 10 µM; `CC(C)NC(=O)c1cc2ccc(-c3nccc(Nc4ccc(-c5cn[nH]c5)cc4)n3)cc2[nH]1` [TDI01280, 6-(4-((4-(1H-pyrazol-4-yl)phenyl)ami-no)pyrimidin-2-yl)-N-isopropyl-1H-indole-2-carboxamide]: 1.02 µM.
Next, `CN(C)c1cnccc1NC(=O)c1cc2ccc(-c3nccc(Nc4ccc5[nH]ncc5c4)n3)cc2[nH]1` [TDI01289, 6-(4-((1H-indazol-5-yl)amino)-pyrimidin-2-yl)-N-(3-(dimethylamino)-pyridin-4-yl)-1H-indole-2-carboxamide]: 0.98 µM.

What is called IC50 is the concentration at which inhibition is half-maximal.

Values taken from patent US11390609B2, “Rho-associated protein kinase inhibitor, pharmaceutical composition comprising same, and preparation method and use thereof” (BEIJING TIDE PHARMACEUTICAL CO., LTD., priority 2017, dated 2022).
